Results: PubChem BioAssay AID1845194 (Molecular Pharmacology Branch, DTP, NCI, 2023)

System: 287954-098-R-J1 tumor spheroid viability
Assay: Anticancer human tumor 287954-098-R-J1 patient-derived Ewing sarcoma cell line growth inhibition
Conditions: spheroids with HUVEC and MSC; for IC50: curve of first compound; for viability, T/C: stronger effect = lower value
Procedure, shortened: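 Single agents and combinations were tested on spheroids built from tumor cells plus HUVEC and hMSC, at half-log dilutions starting at or near clinical Cmax, else 10 microM; final DMSO 0.25% (v/v).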

[1] = second compound 30 pM, first compound 0.0316 µM
[2] = second compound 30 pM, first compound 0.1 µM
[3] = second compound 30 pM, first compound 0.316 µM
[4] = second compound 30 pM, first compound 1 µM
[5] = second compound 30 pM, first compound 3.16 µM
[6] = second compound 30 pM, first compound 10 µM
[7] = second compound 94.9 pM, first compound 0.0316 µM
[8] = second compound 94.9 pM, first compound 0.1 µM
[9] = second compound 94.9 pM, first compound 0.316 µM
[10] = second compound 94.9 pM, first compound 1 µM
[11] = second compound 94.9 pM, first compound 3.16 µM
[12] = second compound 94.9 pM, first compound 10 µM
[13] = second compound 0.0003 µM, first compound 0.0316 µM
[14] = second compound 0.0003 µM, first compound 0.1 µM
[15] = second compound 0.0003 µM, first compound 0.316 µM
[16] = second compound 0.0003 µM, first compound 1 µM
[17] = second compound 0.0003 µM, first compound 3.16 µM
[18] = second compound 0.0003 µM, first compound 10 µM
[19] = second compound 0.000949 µM, first compound 0.0316 µM
[20] = second compound 0.000949 µM, first compound 0.1 µM
[21] = second compound 0.000949 µM, first compound 0.316 µM
[22] = second compound 0.000949 µM, first compound 1 µM
[23] = second compound 0.000949 µM, first compound 3.16 µM
[24] = second compound 0.000949 µM, first compound 10 µM
[25] = second compound 0.003 µM, first compound 0.0316 µM
[26] = second compound 0.003 µM, first compound 0.1 µM
[27] = second compound 0.003 µM, first compound 0.316 µM
[28] = second compound 0.003 µM, first compound 1 µM
[29] = second compound 0.003 µM, first compound 3.16 µM
[30] = second compound 0.003 µM, first compound 10 µM
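Note: spheroids exposed to compound for 7 days before viability readout.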
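Throughout, for viability, T/C: luminescent signal taken as surrogate of viable cell content; 100% = DMSO vehicle control viability and lower means growth inhibition.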

Structure (SMILES) | IC50 (second compound 30 pM) [µM] | IC50 (second compound 94.9 pM) [µM] | IC50 (second compound 0.0003 µM) [µM] | IC50 (second compound 0.000949 µM) [µM] | IC50 (second compound 0.003 µM) [µM] | viability, T/C [1] [%] | viability, T/C [2] [%] | viability, T/C [3] [%] | viability, T/C [4] [%] | viability, T/C [5] [%] | viability, T/C [6] [%] | viability, T/C [7] [%] | viability, T/C [8] [%] | viability, T/C [9] [%] | viability, T/C [10] [%] | viability, T/C [11] [%] | viability, T/C [12] [%] | viability, T/C [13] [%] | viability, T/C [14] [%] | viability, T/C [15] [%] | also measured
CC1COCCN1c1cc(-c2ccnn2C)c2ccnc(-c3ccn[nH]3)c2n1 (stereo not given) + COc1cc2c(cc1O)CCNC21CSC2c3c(OC(C)=O)c(C)c4c(c3C(COC1=O)N1C(O)C3Cc5cc(C)c(OC)c(O)c5C(C21)N3C)OCO4 | 0.0746 | 0.0483 | < 0.0316 | < 0.0316 | < 0.0316 | 111 | 28.8 | 7.3 | 4.7 | 1.8 | 2.96 | 73.7 | 9.38 | 3.08 | 1.84 | 1.08 | 2.57 | 2.38 | 1.69 | 1.1 | viability, T/C [16]: 0.7%; viability, T/C [17]: 0.69%; viability, T/C [18]: 0.94%; viability, T/C [19]: 0.28%; viability, T/C [20]: 0.34%; viability, T/C [21]: 0.31%; viability, T/C [22]: 0.09%; viability, T/C [23]: 0.03%; viability, T/C [24]: 0.13%; viability, T/C [25]: 0.19%; viability, T/C [26]: 0.19%; viability, T/C [27]: 0.14%; viability, T/C [28]: 0.12%; viability, T/C [29]: 0.11%; viability, T/C [30]: 0.22%
COc1cc(C)[nH]c(=O)c1CN1CCc2c(Cl)cc(C(OC)C3COC3)c(Cl)c2C1=O (stereo not given) + COc1cc2c(cc1O)CCNC21CSC2c3c(OC(C)=O)c(C)c4c(c3C(COC1=O)N1C(O)C3Cc5cc(C)c(OC)c(O)c5C(C21)N3C)OCO4 | > 10 | > 10 | > 10 | < 0.0316 | < 0.0316 | 96.5 | 94.2 | 87.3 | 92.8 | 104 | 89.9 | 108 | 101 | 94.5 | 94.1 | 91.3 | 94.1 | 104 | 102 | 92.1 | viability, T/C [16]: 95.5%; viability, T/C [17]: 90.9%; viability, T/C [18]: 87.9%; viability, T/C [19]: 0.52%; viability, T/C [20]: 0.35%; viability, T/C [21]: 0.34%; viability, T/C [22]: 0.36%; viability, T/C [23]: 0.25%; viability, T/C [24]: 0.33%; viability, T/C [25]: 0.25%; viability, T/C [26]: 0.27%; viability, T/C [27]: 0.22%; viability, T/C [28]: 0.16%; viability, T/C [29]: 0.16%; viability, T/C [30]: 0.25%
Cc1cc(C)c(CNC(=O)c2cc(-c3ccc(CN4CCOCC4)cc3)cc3c2cnn3C2CCCC2)c(=O)[nH]1 + COc1cc2c(cc1O)CCNC21CSC2c3c(OC(C)=O)c(C)c4c(c3C(COC1=O)N1C(O)C3Cc5cc(C)c(OC)c(O)c5C(C21)N3C)OCO4 | > 10 | > 10 | > 10 | < 0.0316 | < 0.0316 | 106 | 108 | 106 | 107 | 117 | 116 | 106 | 105 | 105 | 109 | 108 | 117 | 96.7 | 109 | 108 | viability, T/C [16]: 113%; viability, T/C [17]: 103%; viability, T/C [18]: 102%; viability, T/C [19]: 0.27%; viability, T/C [20]: 0.28%; viability, T/C [21]: 0.23%; viability, T/C [22]: 0.2%; viability, T/C [23]: 0.18%; viability, T/C [24]: 0.25%; viability, T/C [25]: 0.2%; viability, T/C [26]: 0.23%; viability, T/C [27]: 0.15%; viability, T/C [28]: 0.12%; viability, T/C [29]: 0.12%; viability, T/C [30]: 0.22%
[2H]c1nc(C)nc([2H])c1-c1cc(NC[C@@H](C)c2cccc3c(C(=O)NC)ccnc23)ncn1 + COc1cc2c(cc1O)CCNC21CSC2c3c(OC(C)=O)c(C)c4c(c3C(COC1=O)N1C(O)C3Cc5cc(C)c(OC)c(O)c5C(C21)N3C)OCO4 | > 10 | > 10 | > 10 | < 0.0316 | < 0.0316 | 109 | 104 | 104 | 108 | 109 | 98.6 | 106 | 114 | 107 | 110 | 101 | 96.7 | 105 | 108 | 112 | viability, T/C [16]: 107%; viability, T/C [17]: 95.4%; viability, T/C [18]: 89.2%; viability, T/C [19]: 0.38%; viability, T/C [20]: 0.51%; viability, T/C [21]: 0.33%; viability, T/C [22]: 0.67%; viability, T/C [23]: 0.26%; viability, T/C [24]: 0.31%; viability, T/C [25]: 0.21%; viability, T/C [26]: 0.24%; viability, T/C [27]: 0.17%; viability, T/C [28]: 0.15%; viability, T/C [29]: 0.14%; viability, T/C [30]: 0.25%
